Source: US20250332178A1, “METHODS OF TREATING MYCOBACTERIAL INFECTIONS USING TETRACYCLINE COMPOUNDS” (priority 2018, published 2025)
Where two headings read alike, the source gives them in different places.

Columns and labels:
[1] = system: rapid-growing mycobacteria (RGM) isolates; assay: MIC (CLSI broth dilution), all RGM isolates; assay type: cell-based, nontuberculous mycobacteria; settings: all 50 RGM isolates
M. fortuitum group = assay: MIC (CLSI broth dilution), RGM isolates; assay type: cell-based; settings: Mycolicibacterium fortuitum, read-out: MIC
M. abscessus complex = assay: MIC (CLSI broth dilution), RGM isolates; assay type: cell-based; settings: Mycobacteroides abscessus, read-out: MIC
M. arupense = assay: MIC (CLSI broth dilution), slow-growing NTM isolates; assay type: cell-based; settings: isolate 11, Other; read-out: MIC
M. mucogenium group = assay: MIC (CLSI broth dilution), RGM isolates; assay type: cell-based; settings: read-out: MIC
M. smegmatis group = assay: MIC (CLSI broth dilution), RGM isolates; assay type: cell-based; settings: Mycolicibacterium smegmatis, read-out: MIC
M. simiae = assay: MIC (CLSI broth dilution), slow-growing NTM isolates; assay type: cell-based; settings: read-out: MIC
M. chelonae = assay: MIC (CLSI broth dilution), RGM isolates; assay type: cell-based; settings: Mycobacteroides chelonae, read-out: MIC
M. immunogenum group = assay: MIC (CLSI broth dilution), RGM isolates; assay type: cell-based; settings: M. immunogenum, read-out: MIC
M. abscessus = settings: strains of M. abscessus; Wallace et al.; cited from earlier work

CN(C)c1ccc(O)c2c1C[C@H]1C[C@H]3[C@H](N(C)C)C(O)=C(C(N)=O)C(=O)[C@@]3(O)C(O)=C1C2=O [minocycline]
8 µg/mL: MIC50 ([1]; read-out: MIC50) | MIC (M. fortuitum group; isolate 30, M. fortuitum group, M. porcinum/M. boenickei) | MIC (M. abscessus complex; isolate 2, M. abscessus complex, erm gene type MAB30) | MIC (M. abscessus complex; isolate 7, M. abscessus complex, erm gene type Type 1 abscessus) | MIC (M. abscessus complex; isolate 15, M. abscessus complex, erm gene type Type 7 abscessus) | MIC (M. arupense) | MIC (M. mucogenium group; isolate 46, M. mucogenicum group, M. phocaicum)
> 8 µg/mL: MIC90 ([1]; read-out: MIC90) | MIC (M. fortuitum group; isolate 25, M. fortuitum group, M. fortuitum) | MIC (M. abscessus complex; isolate 1, M. abscessus complex, erm gene type MAB30) | MIC (M. abscessus complex; isolate 3, M. abscessus complex, erm gene type MAB30) | MIC (M. abscessus complex; isolate 5, M. abscessus complex, erm gene type massiliense/subsp. abs hybrid) | MIC (M. abscessus complex; isolate 6, M. abscessus complex, erm gene type Type 1 abscessus) | MIC (M. abscessus complex; isolate 8, M. abscessus complex, erm gene type Type 1 abscessus) | MIC (M. abscessus complex; isolate 9, M. abscessus complex, erm gene type Type 1 abscessus) | MIC (M. abscessus complex; isolate 10, M. abscessus complex, erm gene type Type 1 abscessus) | MIC (M. abscessus complex; isolate 12, M. abscessus complex, erm gene type Type 6 abscessus) | MIC (M. abscessus complex; isolate 13, M. abscessus complex, erm gene type Type 6 abscessus) | MIC (M. abscessus complex; isolate 16, M. abscessus complex, erm gene type Type 7 abscessus) | MIC (M. mucogenium group; isolate 44, M. mucogenicum group, M. phocaicum) | MIC (M. mucogenium group; isolate 45, M. mucogenicum group, M. phocaicum) | MIC (M. simiae; isolate 14, Other) | MIC (M. simiae; isolate 15, Other) | MIC (M. chelonae; isolate 18, M. chelonae) | MIC (M. chelonae; isolate 19, M. chelonae) | MIC (M. chelonae; isolate 20, M. chelonae) | MIC (M. chelonae; isolate 21, M. chelonae) | MIC (M. chelonae; isolate 22, M. chelonae) | MIC (M. immunogenum group; isolate 35, M. immunogenum group) | MIC (M. immunogenum group; isolate 37, M. immunogenum group) | MIC (M. immunogenum group; isolate 38, M. immunogenum group)
≤ 0.5 µg/mL: MIC (M. fortuitum group; isolate 23, M. fortuitum group, M. fortuitum) | MIC (M. fortuitum group; isolate 24, M. fortuitum group, M. fortuitum) | MIC (M. fortuitum group; isolate 31, M. fortuitum group, M. senegalense) | MIC (M. fortuitum group; isolate 32, M. fortuitum group, M. senegalense) | MIC (M. fortuitum group; isolate 33, M. fortuitum group, M. senegalense) | MIC (M. fortuitum group; isolate 34, M. fortuitum group, M. senegalense) | MIC (M. mucogenium group; isolate 39, M. mucogenicum group, M. mucogenicum) | MIC (M. mucogenium group; isolate 41, M. mucogenicum group, M. mucogenicum) | MIC (M. mucogenium group; isolate 42, M. mucogenicum group, M. mucogenicum) | MIC (M. mucogenium group; isolate 43, M. mucogenicum group, M. phocaicum) | MIC (M. mucogenium group; isolate 47, M. mucogenicum group, M. phocaicum) | MIC (M. smegmatis group; isolate 49, M. smegmatis group, M. goodii) | MIC (M. smegmatis group; isolate 50, M. smegmatis group, M. wolinskyi) | MIC (M. immunogenum group; isolate 36, M. immunogenum group)
1 µg/mL: MIC (M. fortuitum group; isolate 26, M. fortuitum group, M. porcinum) | MIC (M. fortuitum group; isolate 28, M. fortuitum group, M. porcinum/M. boenickei)
≤ 1 µg/mL: MIC (M. mucogenium group; isolate 40, M. mucogenicum group, M. mucogenicum)
2 µg/mL: MIC (M. mucogenium group; isolate 48, M. mucogenicum group, M. phocaicum)
4 µg/mL: MIC (M. fortuitum group; isolate 27, M. fortuitum group, M. porcinum) | MIC (M. fortuitum group; isolate 29, M. fortuitum group, M. porcinum/M. boenickei) | MIC (M. abscessus complex; isolate 4, M. abscessus complex, erm gene type massiliense) | MIC (M. abscessus complex; isolate 11, M. abscessus complex, erm gene type Type 6 abscessus) | MIC (M. abscessus complex; isolate 14, M. abscessus complex, erm gene type Type 6 abscessus) | MIC (M. abscessus complex; isolate 17, M. abscessus complex, erm gene type Type 8 abscessus) | MIC (M. simiae; isolate 13, Other)

CN(C)[C@@H]1C(=O)C(C(N)=O)=C(O)[C@@]2(O)C(=O)C3=C(O)c4c(O)cccc4[C@@](C)(O)[C@H]3C[C@@H]12 [tetracycline]
very low activity: in vitro activity (in words) (M. abscessus)
